Data reported in patent US8962808B2, “EGFR-related polypeptides and methods of use” (The Research Foundation for the State University of New York, priority 2010, dated 2015).

Columns and labels:
[1] = tested on: cancer cells with EGFRvIII expression; settings: literature reports; cited from earlier work
SY5Y = assay: IP-western of phosphorylation status of GFP-tagged EGFR mutants in SY5Y cells; type: cell-based, human; settings: anti-GFP IP, higher than EGFRvIII, FIG. 7D
Description: Then, we prepared RNA and protein lysates from the transfected cells. We confirmed the identity of the lysates by RT-PCR (FIG. 7C). Next, we evaluated the phosphorylation status of both mutants. Because SY5Y cells expressed endogenous WT-EGFR (21, 22), we used anti-GFP antibody to immunoprecipitate the mutant EGFR polypeptides.

NIH 3T3 cells = assay: Western blot of phosphorylation of GFP-tagged EGFRΔ[…] versus WT-EGFR in NIH 3T3 cells; type: cell-based; settings: no ligand, FIG. 7A
Description: Dafna Bar-Sagi). Then, we subcloned the novel extracellular deletion mutant Δ[…] into this vector. […]

[2] = tested on: non-small cell lung cancer; settings: NSCLC patients with activating mutations in the EGFR tyrosine kinase domain; cited from earlier work

**Q.** For `C#Cc1cccc(Nc2ncnc3cc(OCCOC)c(OCCOC)cc23)c1` [erlotinib], which “sensitivity of cancer cells with EGFRvIII expression” value [1] is on record?
**A.** not as sensitive

**Q.** For “EGFRΔ768: truncated EGFR, in-frame deletion from nucleotide 102 of exon 2 to nucleotide 869 of exon 7”, which “autophosphorylation level, difference versus EGFRvIII” value (SY5Y) is on record?
**A.** ~40%

**Q.** And the “phosphorylation in the absence of ligand (versus WT-EGFR)” value (NIH 3T3 cells)?
**A.** constitutively active

**Q.** Which patient response [2] does the source give for `COc1cc2ncnc(Nc3ccc(F)c(Cl)c3)c2cc1OCCCN1CCOCC1` [gefitinib] here?
**A.** dramatic response
